Assay results reported in patent US12077503B2, “Substituted cyclic amides and their use as herbicides” (FMC CORPORATION, priority 2015, dated 2024).

What was measured:
Type in all cases: in vivo
[1] = system: Kochia (Kochia scoparia); experiment: Test A preemergence; conditions: for Plant response rating, Kochia: 125 g ai/ha, preemergence, 0 to 100 scale (0 no effect, 100 complete control); for Kochia plant response rating (0 to 100 scale, 0 is no effect, 100 is complete control): Preemergence, 500 g ai/ha, visual injury approx. 10 d
Summary of the method: (§1)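 Ratings of 0 (no effect) to 100 (complete control) come from visual comparison with untreated controls roughly 10 d after treatment. Test chemicals, formulated in a non-phytotoxic solvent mixture with surfactant, were applied either as a preemergence directed soil spray on seeded soil or postemergence to one- to two-leaf plants 2 to 10 cm tall.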

[2] = system: barnyardgrass (Echinochloa crus-galli); experiment: Test A preemergence; conditions: for Plant response rating, Barnyardgrass: 125 g ai/ha, preemergence, 0 to 100 scale (0 no effect, 100 complete control); for Barnyardgrass plant response rating (0 to 100 scale, 0 is no effect, 100 is complete control): Preemergence, 500 g ai/ha, visual injury approx. 10 d
Summary of the method: as §1

[3] = system: giant foxtail (Setaria faberii); experiment: Test A preemergence; conditions: for Plant response rating, Foxtail, Giant: 125 g ai/ha, preemergence, 0 to 100 scale (0 no effect, 100 complete control); for Foxtail, Giant plant response rating (0 to 100 scale, 0 is no effect, 100 is complete control): Preemergence, 500 g ai/ha, visual injury approx. 10 d
Summary of the method: as §1

[4] = system: pigweed (Amaranthus retroflexus); experiment: Test A preemergence; conditions: for Plant response rating, Pigweed: 125 g ai/ha, preemergence, 0 to 100 scale (0 no effect, 100 complete control); for Pigweed plant response rating (0 to 100 scale, 0 is no effect, 100 is complete control): Preemergence, 500 g ai/ha, visual injury approx. 10 d
[5] = system: ragweed (common ragweed, Ambrosia elatior); experiment: Test A preemergence; conditions: for Plant response rating, Ragweed: 125 g ai/ha, preemergence, 0 to 100 scale (0 no effect, 100 complete control); for Ragweed plant response rating (0 to 100 scale, 0 is no effect, 100 is complete control): Preemergence, 500 g ai/ha, visual injury approx. 10 d
Summary of the method: as §1

[6] = system: ryegrass, Italian (Italian ryegrass, Lolium multiflorum); experiment: Test A preemergence; conditions: for Plant response rating, Ryegrass, Italian: 125 g ai/ha, preemergence, 0 to 100 scale (0 no effect, 100 complete control); for Ryegrass, Italian plant response rating (0 to 100 scale, 0 is no effect, 100 is complete control): Preemergence, 500 g ai/ha, visual injury approx. 10 d
Summary of the method: as §1

[7] = system: Galium (catchweed bedstraw, Galium aparine); experiment: Test A postemergence; conditions: postemergence; for Galium plant response rating: 125 g ai/ha, visual injury rating on 0 to 100 scale (0 no effect, 100 complete control), approx. 10 d; for Plant response rating, Galium: 500 g ai/ha, 0 to 100 scale, 0 no effect, 100 complete control
Summary of the method: as §1

[8] = system: Kochia (Kochia scoparia); experiment: Test A postemergence; conditions: postemergence; for Kochia plant response rating: 125 g ai/ha, visual injury rating on 0 to 100 scale (0 no effect, 100 complete control), approx. 10 d; for Plant response rating, Kochia: 500 g ai/ha, 0 to 100 scale, 0 no effect, 100 complete control
Summary of the method: as §1

[9] = system: barnyardgrass (Echinochloa crus-galli); experiment: Test A postemergence; conditions: postemergence; for Barnyardgrass plant response rating: 125 g ai/ha, visual injury rating on 0 to 100 scale (0 no effect, 100 complete control), approx. 10 d; for Plant response rating, Barnyardgrass: 500 g ai/ha, 0 to 100 scale, 0 no effect, 100 complete control
Summary of the method: as §1

[10] = system: blackgrass (Alopecurus myosuroides); experiment: Test A postemergence; conditions: postemergence; for Blackgrass plant response rating: 125 g ai/ha, visual injury rating on 0 to 100 scale (0 no effect, 100 complete control), approx. 10 d; for Plant response rating, Blackgrass: 500 g ai/ha, 0 to 100 scale, 0 no effect, 100 complete control
Summary of the method: as §1

[11] = system: corn (Zea mays); experiment: Test A postemergence; conditions: postemergence; for Corn plant response rating: 125 g ai/ha, visual injury rating on 0 to 100 scale (0 no effect, 100 complete control), approx. 10 d; for Plant response rating, Corn: 500 g ai/ha, 0 to 100 scale, 0 no effect, 100 complete control
Summary of the method: as §1

[12] = system: giant foxtail (Setaria faberii); experiment: Test A postemergence; conditions: postemergence; for Foxtail, Giant plant response rating: 125 g ai/ha, visual injury rating on 0 to 100 scale (0 no effect, 100 complete control), approx. 10 d; for Plant response rating, Foxtail, Giant: 500 g ai/ha, 0 to 100 scale, 0 no effect, 100 complete control
Summary of the method: as §1

[13] = system: pigweed (Amaranthus retroflexus); experiment: Test A postemergence; conditions: postemergence; for Pigweed plant response rating: 125 g ai/ha, visual injury rating on 0 to 100 scale (0 no effect, 100 complete control), approx. 10 d; for Plant response rating, Pigweed: 500 g ai/ha, 0 to 100 scale, 0 no effect, 100 complete control
Summary of the method: as §1

[14] = system: ragweed (common ragweed, Ambrosia elatior); experiment: Test A postemergence; conditions: postemergence; for Ragweed plant response rating: 125 g ai/ha, visual injury rating on 0 to 100 scale (0 no effect, 100 complete control), approx. 10 d; for Plant response rating, Ragweed: 500 g ai/ha, 0 to 100 scale, 0 no effect, 100 complete control
Summary of the method: as §1

[15] = system: ryegrass, Italian (Italian ryegrass, Lolium multiflorum); experiment: Test A postemergence; conditions: postemergence; for Ryegrass, Italian plant response rating: 125 g ai/ha, visual injury rating on 0 to 100 scale (0 no effect, 100 complete control), approx. 10 d; for Plant response rating, Ryegrass, Italian: 500 g ai/ha, 0 to 100 scale, 0 no effect, 100 complete control
Summary of the method: as §1

[16] = system: wheat (Triticum aestivum); experiment: Test A postemergence; conditions: postemergence; for Wheat plant response rating: 125 g ai/ha, visual injury rating on 0 to 100 scale (0 no effect, 100 complete control), approx. 10 d; for Plant response rating, Wheat: 500 g ai/ha, 0 to 100 scale, 0 no effect, 100 complete control
Summary of the method: as §1

[17] = system: barnyardgrass (Echinochloa crus-galli); experiment: Test B flooded paddy test; conditions: Flood, 0 to 100 scale where 0 is no effect and 100 is complete control, 13 to 15 d
Summary of the method: (§2)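 Compound goes directly into floodwater once pots are flooded 3 cm above soil, targeting plants at two leaves; the water depth is then held for the test duration. Plants sit 13–15 d in a greenhouse and are rated visually, 100 denoting complete control.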

[18] = system: ducksalad (Heteranthera limosa); experiment: Test B flooded paddy test; conditions: Flood, 0 to 100 scale where 0 is no effect and 100 is complete control, 13 to 15 d
Summary of the method: as §2

[19] = system: rice (Oryra sativa); experiment: Test B flooded paddy test; conditions: Flood, 0 to 100 scale where 0 is no effect and 100 is complete control, 13 to 15 d
Summary of the method: as §2

[20] = system: sedge, umbrella (small-flower umbrella sedge, Cyperus difformis); experiment: Test B flooded paddy test; conditions: Flood, 0 to 100 scale where 0 is no effect and 100 is complete control, 13 to 15 d
Summary of the method: as §2

SMILES | Plant response rating, Kochia [1] | Kochia plant response rating (0 to 100 scale, 0 is no effect, 100 is complete control) [1] | Plant response rating, Barnyardgrass [2] | Barnyardgrass plant response rating (0 to 100 scale, 0 is no effect, 100 is complete control) [2] | Plant response rating, Foxtail, Giant [3] | Foxtail, Giant plant response rating (0 to 100 scale, 0 is no effect, 100 is complete control) [3] | Plant response rating, Pigweed [4] | Pigweed plant response rating (0 to 100 scale, 0 is no effect, 100 is complete control) [4] | Plant response rating, Ragweed [5] | Ragweed plant response rating (0 to 100 scale, 0 is no effect, 100 is complete control) [5] | Plant response rating, Ryegrass, Italian [6] | Ryegrass, Italian plant response rating (0 to 100 scale, 0 is no effect, 100 is complete control) [6] | Galium plant response rating [7] | Plant response rating, Galium [7] | Kochia plant response rating [8] | Plant response rating, Kochia [8] | Barnyardgrass plant response rating [9] | Plant response rating, Barnyardgrass [9] | Blackgrass plant response rating [10] | Plant response rating, Blackgrass [10] | also measured
CN1CC(c2ccc3c(c2)OC(F)(F)O3)C(C(=O)Nc2cccc(F)c2F)C1=O (stereo not drawn) [Compound 442] | 80 | 90 | 90 | 90 | 90 | 90 | 70 | 80 | 20 | 60 | 60 | 80 | 60 | 60 | 20 | 60 | 80 | 90 | 60 | 70 | Corn plant response rating [11]: 50; Plant response rating, Corn [11]: 70; Foxtail, Giant plant response rating [12]: 80; Plant response rating, Foxtail, Giant [12]: 80; Pigweed plant response rating [13]: 60; Plant response rating, Pigweed [13]: 70; Ragweed plant response rating [14]: 0; Plant response rating, Ragweed [14]: 40; Ryegrass, Italian plant response rating [15]: 60; Plant response rating, Ryegrass, Italian [15]: 80; Wheat plant response rating [16]: 40; Plant response rating, Wheat [16]: 70; Plant response rating, Barnyardgrass ([17]; 250 g ai/ha): 75; Plant response rating, Ducksalad ([18]; 250 g ai/ha): 100; Plant response rating, Rice ([19]; 250 g ai/ha): 0; Plant response rating, Sedge, Umbrella ([20]; 250 g ai/ha): 0
COc1ccc(NC(=O)C2C(=O)NCC2c2cccc(OC(F)F)c2)c(F)c1 (stereo not drawn) [Compound 425] | 0 | 0 | 0 | 20 | 40 | 70 | 0 | 0 | 0 | 0 | 0 | 0 | 0 | 0 | 0 | 0 | 20 | 30 | 0 | 0 | Corn plant response rating [11]: 0; Plant response rating, Corn [11]: 0; Foxtail, Giant plant response rating [12]: 20; Plant response rating, Foxtail, Giant [12]: 30; Pigweed plant response rating [13]: 0; Plant response rating, Pigweed [13]: 0; Ragweed plant response rating [14]: 0; Plant response rating, Ragweed [14]: 0; Ryegrass, Italian plant response rating [15]: 0; Plant response rating, Ryegrass, Italian [15]: 0; Wheat plant response rating [16]: 0; Plant response rating, Wheat [16]: 0; Plant response rating, Barnyardgrass ([17]; 500 g ai/ha): 0; Plant response rating, Ducksalad ([18]; 500 g ai/ha): 30; Plant response rating, Rice ([19]; 500 g ai/ha): 0; Plant response rating, Sedge, Umbrella ([20]; 500 g ai/ha): 0
